Experiments:
[1] = tested on: anti-TNP-specific immunoglobulins; assay: TNP-KLH vaccination, serum anti-TNP-specific immunoglobulins (ELISA); type: in vivo, mice; conditions: for IgG2: day 7, co-injected with TNP-KLH; for serum levels of anti-TNP-specific IgG1: seven days, versus control
Method: The antigen was prepared for injection as follows. DNP-KLH (1.0 mg/ml, Biosearch Technologies, Inc. catalog no. T-5060-5) was prepared in PBS (e.g. dissolve 4.0 mg of purified DNP-KLH in PBS and raise volume to 4.0 ml). Complete Freund's Adjuvant (2.0 ml, CFA; Sigma F-5881) was vortexed and mixed with 2.0 ml of the TNP-KLH solution at 4° C. The CFA/KLH mixture was drawn into a 3-ml glass syringe with a 19-gauge needle. The syringe was attached to a double-ended locking hub connector or a plastic 3-way stopcock. An empty 2-ml glass syringe was attached to the other end and the mixture forced back and forth from one end to the other repeatedly. When the mixture was white and homogeneous, the connector or stopcock was disconnected, a 25 gauge needle attached, and tested for emulsion by placing a drop on the surface of 50 ml of cold water in a 100-ml beaker. The drop should hold together; if not, repeat mixing. […] Samples of blood were obtained by retro-orbital bleeding at 7, 14, and 21 days after TNP-KLH and theophylline injection. Serum levels of anti-TNP-specific IgG1, IgG2a, IgG2b, IgG3, and IgM were estimated using an ELISA kit (Sigma) according to the manufacturer's instructions.

[2] = tested on: CMS4 tumor cells; assay: CMS4 lung tumors with antigen-specific CTL immunotherapy; type: in vivo; conditions: BALB/c mice, CMS4 i.v., CTL on day 10; ZM241385 10 mg/kg/day i.p. or caffeine 0.1% w/v in drinking water; FIGS. 12A-C
Excerpt: BALB/c mice were inoculated i.v. with CMS4 tumor cells (Methylcholanthrene-induced sarcoma, 2.5×10^5 cells) on day zero to induce the formation of lung tumors. […] The lung tumors were subsequently examined on days 17, day 18 and day 24, by sacrificing the mice and evaluating their lungs for the number and size of metastasis by visual inspection.

[3] = tested on: NF-kB-regulated pro-inflammatory cytokines (TNFα, IL-12p40); assay: Cytokine mRNA in spleen of CpG-activated mice (RNase protection assay); type: in vivo; conditions: C57BL/6 mice, 10 mg/kg i.p. 15 minutes before CpG, FIGS. 8A and 8B
Method: Mutant (A2aR^−/−) or wild-type mice were injected (i.p.) with 20 nmol CpG oligonucleotide (5′-T*C*[…]*A*T*G*C*T-3′, asterisk means phosphorothioate. SEQ ID NO. 1). This toll-receptor activating CpG DNA preparation stimulates the immune system. After one hour, mRNA was extracted from spleenocytes and analyzed for cytokine gene expression using an RNase protection assay with commercial templates (mCK-2b and mCK-3b, Pharmingen, San Diego, Calif.).

[4] = tested on: B16 melanoma cells; assay: B16 melanoma tumor growth; type: in vivo, mice; conditions: daily i.p., ZM241385 0.2 mg/mouse, caffeine 0.4 mg/mouse, start 28 days after tumor cells; FIG. 14
Excerpt: […] (immunocompromised nude mice; or immunocompetent C57BL/6 mice) were inoculated subcutaneously with B16 melanoma cells (American Type Culture Collection, Manassas, Va.), or B16-H2-Kd transfected tumor cells (increases the immunogenicity of the cells) on day zero to induce the formation of melanomas. The treatment with adenosine receptor antagonists started 28 days after injection of tumor cells, when the tumor reached 7-9 mm in diameter.
[…]. The delay in tumor growth was greater in immunocompetent C57BL/6 mice, and less so in immunocompromised nude mice. However, as the tumor increases in size, both antagonists slow down tumor growth even in immunocompromised animals. […] In addition, adenosine receptor antagonists appear to improve both anti-tumor immunity and preventing or decreasing angiogenesis.

[5] = tested on: activated macrophages and T cells; assay: Secretion of IL-12 and IFN-γ by activated macrophages and T cells in vitro (ELISA); type: cell-based; conditions: FIG. 1B
[6] = tested on: IkB; assay: IkB phosphorylation in macrophages after CpG (Western blot); type: in vivo; conditions: C57BL/6 mice, 5 nMol CpG i.v., CGS21680 2 mg/kg, macrophages after 20 minutes
Method: After 20 minutes, macrophages were isolated as described above, and subjected to Western blot analysis using Ab that recognize IkB and Ab can distinguish the phosphorylated form of IkB (IkB-P).

[7] = co-injected with TNP-KLH, about 1 mg/kg

O=C(Cc1ccccc1)Nc1nc2ccc(Cl)cc2c2nc(-c3ccco3)nn12 [MRS1220]
IgG2 [1]: improved | serum levels of anti-TNP-specific IgG1 [1, 7]: markedly increased

Nc1nc(NCCc2ccc(O)cc2)nc2nc(-c3ccco3)nn12 [ZM241385]
number of metastatic nodules in the lung [2]: decrease in the number of metastatic nodules | IgG2 [1]: improved | serum levels of anti-TNP-specific IgG1 [1, 7]: markedly increased | mRNA expression of NF-kB-regulated pro-inflammatory cytokines [3]: higher expression of NF-kB-regulated pro-inflammatory cytokines | tumor growth [4]: tumor retardation that became significant after 3-7 days of treatment

Cn1c(=O)c2[nH]cnc2n(C)c1=O [theophylline]
serum levels of anti-TNP-specific IgG1 ([1]; co-injected i.p. with TNP-KLH, FIG. 15): markedly increased | serum levels of anti-TNP-specific IgG1 ([1]; co-injected subcutaneously with TNP-KLH): improvement of antibody production | serum levels of anti-TNP-specific IgG1 ([1]; co-injected subcutaneously with TNP-KLH, listed as theophyllin): markedly increased

CCNC(=O)[C@H]1O[C@@H](n2cnc3c(N)nc(NCCc4ccc(CCC(=O)O)cc4)nc32)[C@H](O)[C@@H]1O [CGS21680]
secretion of IFN-γ [5]: inhibited secretion | secretion of IL-12 [5]: inhibited secretion | phosphorylation of IkB [6]: decreased or inhibited
